The test system of data set [1] is Hepatitis C virus. Description: Antiviral activity against Hepatitis C virus genotype 1b in human HuH7 cells assessed as inhibition of viral replication after 72 hrs by luciferase reporter assay. It counts as functional, cell-based, Hepacivirus hominis. Particulars: Huh-7, 72 h.
Data set [2] in a line: Cytotoxicity against human HuH7 cells. In kind it is cell-based, Huh-7.
Data set [3] can be described thus: Therapeutic index, ratio of CC50 for human HuH7 cells to EC50 for Hepatitis C virus genotype 1b in human HuH7 cells. In kind it is cell-based, Huh-7. Conditions: read-out: Ratio CC50/EC50.

Structures are written as SMILES.

`C#Cc1cc([C@@H]2O[C@H](CO)[C@@H](O)[C@@]2(C)O)n2ncnc(N)c12`: in data set [1], the EC50 was determined as 0.17 µM. In data set [2], this compound had a CC50 of 0.93 µM. Turning to `C[C@@]1(O)[C@H](O)[C@@H](CO)O[C@H]1c1ccc2c(N)nc(N)nn12`, the EC50 in data set [1] was > 50 µM. Moreover, the CC50 in data set [2] was > 100 µM. `C[C@@]1(O)[C@H](O)[C@@H](CO)O[C@H]1c1cc(C#N)c2c(N)ncnn12`: the EC50 in data set [1] was found to be 0.99 µM. Also, the half-maximal cytotoxic concentration (CC50) in data set [2] came out at 22.1 µM.

For the compound `C[C@@]1(O)[C@H](O)[C@@H](CO)O[C@H]1c1cc(-c2ncc[nH]2)c2c(N)ncnn12`, the EC50 in data set [1] turned out to be 0.69 µM. In data set [2], this compound returned a CC50 of 27.1 µM.

In the case of `C[C@@]1(O)[C@H](O)[C@@H](CO)O[C@H]1c1ccc2c(N)ncnn12`, in data set [2], the CC50 was > 100 µM. As to `C[C@@]1(O)[C@H](O)[C@@H](CO)O[C@H]1c1cnc2c(N)nc(N)nn12`, the 50% effective concentration (EC50) in data set [1] is > 50 µM. In addition, the CC50 in data set [2] was > 100 µM. In data set [2], `C[C@@]1(O)[C@H](O)[C@@H](CO)O[C@H]1c1cnc2c(N)ncnn12` gave a 50% cytotoxic concentration (CC50) of 26 µM. This lies in the double-digit micromolar range. As to `C[C@@]1(O)[C@H](O)[C@@H](CO)O[C@H]1c1cnc2c(N)nc(Cl)nn12`, the half-maximal effective concentration (EC50) in data set [1] was > 50 µM. In data set [2], the CC50 is > 100 µM. For `C[C@@]1(O)[C@H](O)[C@@H](CO)O[C@H]1c1cc(C(N)=O)c2c(N)ncnn12` the same measures were 0.0062 µM and 0.37 µM. `C[C@@]1(O)[C@H](O)[C@@H](CO)O[C@H]1c1cc(F)c2c(N)ncnn12`: the selectivity ratio in data set [3] is > 30. For the same compound, the half-maximal effective concentration (EC50) in data set [1] worked out at 3.1 µM. Further, in data set [2], the 50% cytotoxic concentration (CC50) is > 100 µM. Regarding `C[C@@]1(O)[C@H](O)[C@@H](CO)O[C@H]1c1cnc2c(N)nc(F)nn12`, the half-maximal effective concentration (EC50) in data set [1] is > 50 µM. Further, the cytotoxic concentration (CC50) in data set [2] was > 100 µM. For `C[C@@]1(O)[C@H](O)[C@@H](CO)O[C@H]1c1c(F)cc2c(N)ncnn12`, the half-maximal effective concentration (EC50) in data set [1] is > 50 µM. In addition, in data set [2], the CC50 is > 100 µM. As for `C[C@@]1(O)[C@H](O)[C@@H](CO)O[C@H]1c1cc(-c2ncco2)c2c(N)ncnn12`, the EC50 in data set [1] is 1.8 µM. Also, in data set [2], the 50% cytotoxic concentration (CC50) was determined as 35.7 µM. As for `C[C@@]1(O)[C@H](O)[C@@H](CO)O[C@H]1c1cc(Cl)c2c(N)ncnn12`, the EC50 in data set [1] worked out at 0.26 µM. The CC50 in data set [2] came to 6.5 µM.

The values are drawn from ChEMBL document CHEMBL3351607, “Derivatives of imidazotriazine and pyrrolotriazine C-nucleosides as potential new anti-HCV agents” (Bioorg Med Chem Lett, 2014).
